Assay results from ChEMBL document CHEMBL6182851, “Discovery of dual CDK4/6 and BRD4 inhibitor as apoptosis and autophagy inducers against NSCLC in vitro and in vivo” (Eur J Med Chem, 2025).

How the values were obtained:
Experiment in all cases: cells
[1] = system: A549; settings: Homo sapiens, A549, 48 h
Description: Antitumor activity against human A549 cells assessed as inhibition of cell viability incubated for 48 hrs by MTT assay

[2] = system: NCI-H1299; settings: Homo sapiens, NCI-H1299, 48 h
Description: Antitumor activity against human NCI-H1299 cells assessed as inhibition of cell viability incubated for 48 hrs by MTT assay

[3] = system: NCI-H460; settings: Homo sapiens, NCI-H460, 48 h
Description: Antitumor activity against human NCI-H460 cells assessed as inhibition of cell viability incubated for 48 hrs by MTT assay

SMILES	IC50 [1]	IC50 [2]	IC50 [3]
CN(C)C(=O)c1cc2cnc(Nc3ccc(N4CCN(C(=O)COc5ccc(-c6nc7ccc(Cl)cc7c(=O)[nH]6)cc5)CC4)cn3)nc2n1C1CCCC1	31.2 µM	38.7 µM	> 40 µM
CN(C)C(=O)c1cc2cnc(Nc3ccc(N4CCN(C(=O)COc5ccc(-c6nc7cc(Cl)ccc7c(=O)[nH]6)cc5)CC4)cn3)nc2n1C1CCCC1	> 40 µM	5.93 µM	> 40 µM
COc1cc(OC)c2c(=O)[nH]c(-c3ccc(OCC(=O)N4CCN(c5ccc(Nc6ncc7cc(C(=O)N(C)C)n(C8CCCC8)c7n6)nc5)CC4)c(F)c3)nc2c1	> 40 µM	19.5 µM	26.5 µM
CN(C)C(=O)c1cc2cnc(Nc3ccc(N4CCN(C(=O)COc5ccc(-c6nc7cc(C(F)(F)F)ccc7c(=O)[nH]6)cc5)CC4)cn3)nc2n1C1CCCC1	> 40 µM	21.1 µM	34.4 µM
COc1cc2nc(-c3ccc(OCC(=O)N4CCN(c5ccc(Nc6ncc7cc(C(=O)N(C)C)n(C8CCCC8)c7n6)nc5)CC4)cc3)[nH]c(=O)c2cc1OC	> 40 µM	> 40 µM	38.4 µM
Cc1cccc2c(=O)[nH]c(-c3ccc(OCC(=O)N4CCN(c5ccc(Nc6ncc7cc(C(=O)N(C)C)n(C8CCCC8)c7n6)nc5)CC4)cc3)nc12	> 40 µM	17.2 µM	> 40 µM
COc1cc(OC)c2c(=O)[nH]c(-c3cc(C)c(OCCCCC(=O)NNc4ncc5cc(C(=O)N(C)C)n(C6CCCC6)c5n4)c(C)c3)nc2c1	> 40 µM	38.8 µM	32.6 µM

These reach a lower IC50 [1]. Values come first.

IC50 [1]	IC50 [2]	IC50 [3]	SMILES
28.3 µM	4.5 µM	18.8 µM	CN(C)C(=O)c1cc2cnc(Nc3ccc(N4CCN(C(=O)COc5ccc(-c6nc7ccccc7c(=O)[nH]6)cc5)CC4)cn3)nc2n1C1CCCC1
24.7 µM	16.4 µM	> 40 µM	CN(C)C(=O)c1cc2cnc(Nc3ccc(N4CCN(C(=O)COc5c(Br)cc(-c6nc7ccc(F)cc7c(=O)[nH]6)cc5Br)CC4)cn3)nc2n1C1CCCC1
22.1 µM	11.9 µM	36.8 µM	COc1ccc2nc(-c3ccc(OCC(=O)N4CCN(c5ccc(Nc6ncc7cc(C(=O)N(C)C)n(C8CCCC8)c7n6)nc5)CC4)cc3)[nH]c(=O)c2c1
21.4 µM	8.67 µM	26.6 µM	COc1cc(OC)c2c(=O)[nH]c(-c3cc(C)c(OCC(=O)NNc4ncc5cc(C(=O)N(C)C)n(C6CCCC6)c5n4)c(C)c3)nc2c1
21.1 µM	14.6 µM	36.1 µM	COc1cc(OC)c2c(=O)[nH]c(-c3ccc(OCC(=O)N4CCN(c5ccc(Nc6ncc7cc(C(=O)N(C)C)n(C8CCCC8)c7n6)nc5)CC4)c(Br)c3)nc2c1
